Measurements: US7109338B2, “1,2-disubstituted 1,4-dihydro-4-oxoquinoline compounds” (priority 1999, dated 2006)
In brackets after ≈: the same amount, converted by molar mass.

Tests used:
[1] = test system: Poliovirus type 1 (Polio 1, Sabin); assay: microbe, parasite or virus in culture; format: cell-based
[2] = test system: echovirus type 11 (Echo 11, Gregory); assay: In vitro anti-picornavirus activity (MTT), Echo 11; format: cell-based; details: HeLa-S3 cells, MTT method, 37° C.
[3] = test system: coxsackievirus type A7 (CA7); assay: In vitro anti-picornavirus activity (MTT), CA7; format: cell-based; details: HeLa-S3 cells, MTT method, 37° C.
[4] = test system: coxsackievirus type B4 (CB4,JVB); assay: In vitro anti-picornavirus activity (MTT), CB4; format: cell-based; details: HeLa cells, MTT method, 37° C.
[5] = test system: human rhinovirus type 1B (HRV 1B, B632); assay: Anti-rhinovirus activity (MTT), HRV1B; format: cell-based; details: HeLa (Ohio strain) cells, MTT method, 33° C.
[6] = test system: HRV 2 (HGP); assay: Anti-rhinovirus activity (MTT), HRV2; format: cell-based, human rhinovirus; details: HeLa (Ohio strain) cells, MTT method, 33° C.
[7] = test system: HRV 89 (41617-Gallo); assay: Anti-rhinovirus activity (MTT), HRV89; format: cell-based, human rhinovirus; details: HeLa (Ohio strain) cells, MTT method, 33° C.
[8] = test system: HeLa cells; assay: Cytotoxicity (MTT, without virus), HeLa; details: HeLa, no virus, incubated for 4 days
[9] = test system: HeLa-S3 cells; assay: Cytotoxicity (MTT, without virus), HeLa-S3; details: HeLa-S3, no virus, incubated for 4 days
[10] = test system: HeLa (Ohio strain)cells; assay: Cytotoxicity (MTT, without virus), HeLa(Ohio); details: HeLa(Ohio), no virus, incubated for 4 days

| Structure (SMILES) | IC50 Polio 1 [1] [mg/L] | IC50 Echo 11 [2] [mg/L] | IC50 CA7 [3] [mg/L] | IC50 CB4 [4] [mg/L] | IC50 HRV1B [5] [mg/L] | IC50 HRV2 [6] [mg/L] | IC50 HRV89 [7] [mg/L] | Cytotoxicity CC50 HeLa [8] [mg/L] | Cytotoxicity CC50 HeLa-S3 [9] [mg/L] | Cytotoxicity CC50 HeLa(Ohio) [10] [mg/L] |
| --- | --- | --- | --- | --- | --- | --- | --- | --- | --- | --- |
| CCn1c(-c2cccs2)cc(=O)c2cc(C(C)C)ccc21 [Compound A309] | 0.76 (≈ 2.56 µM) | 0.28 (≈ 0.941 µM) | 3.3 (≈ 11.1 µM) | 1.5 (≈ 5.04 µM) | 0.48 (≈ 1.61 µM) | 0.25 (≈ 0.841 µM) | 0.58 (≈ 1.95 µM) | 12 | 18 | 14 |
| COc1c(OCC(C)C)ccc2c1c(=O)c(C)c(-c1ccccc1)n2C [Compound A196] | 1.1 (≈ 3.13 µM) | 0.44 (≈ 1.25 µM) | 9.7 (≈ 27.6 µM) | 1.9 (≈ 5.41 µM) | 5.9 (≈ 16.8 µM) | 1.8 (≈ 5.12 µM) | 0.86 (≈ 2.45 µM) | >10 | >10 | >10 |
| CCn1c(-c2nccs2)cc(=O)c2cc(C(C)C)ccc21 [Compound A319] | 2.0 (≈ 6.7 µM) | 0.81 (≈ 2.71 µM) | 8.9 (≈ 29.8 µM) | 9.4 (≈ 31.5 µM) | 1.5 (≈ 5.03 µM) | 0.80 (≈ 2.68 µM) | 2.0 (≈ 6.7 µM) | 35 | >50 | 32 |
| COc1ccc(-c2cc(=O)c3cc(C(C)C)ccc3n2C)cc1C [Compound A97] | 0.54 (≈ 1.68 µM) | 0.3 (≈ 0.933 µM) | 2.1 (≈ 6.53 µM) | 1.4 (≈ 4.36 µM) | 0.58 (≈ 1.8 µM) | 0.61 (≈ 1.9 µM) | 0.14 (≈ 0.436 µM) | 5.1 | >10 | 4.5 |
| CCn1c(-c2cccc(F)c2)c(C)c(=O)c2cc(C(C)C)ccc21 [Compound A60] | 1.1 (≈ 3.4 µM) | 0.52 (≈ 1.61 µM) | 2.5 (≈ 7.73 µM) | 2.8 (≈ 8.66 µM) | 0.59 (≈ 1.82 µM) | 0.52 (≈ 1.61 µM) | 1.1 (≈ 3.4 µM) | 5.3 | 7.0 | 5.7 |
| COc1ccc(-c2c(C)c(=O)c3c(C)c(OCC(C)C)ccc3n2C)cc1C [Compound A190] | 0.58 (≈ 1.53 µM) | 0.23 (≈ 0.606 µM) | 3.2 (≈ 8.43 µM) | 2.4 (≈ 6.32 µM) | 2.0 (≈ 5.27 µM) | 0.57 (≈ 1.5 µM) | 0.28 (≈ 0.738 µM) | >4 | >4 | >4 |
| Cc1c(-c2ccccc2)n(-c2ccccc2F)c2ccc(C(C)C)cc2c1=O [Compound A321] |  |  |  |  | 0.60 (≈ 1.62 µM) | 0.056 (≈ 0.151 µM) | 0.066 (≈ 0.178 µM) |  |  | >1 |
| Cc1ccc(-n2c(-c3ccccc3)c(C)c(=O)c3cc(C(C)C)ccc32)cc1 [Compound A325] | >2.5 | >2.5 | >2.5 | >2.5 | >2.5 | 0.066 (≈ 0.18 µM) | 0.022 (≈ 0.0599 µM) | >2.5 | >2.5 | >2.5 |
| CCn1c(-c2ccc(C)s2)cc(=O)c2cc(C(C)C)ccc21 [Compound A315] | 0.54 (≈ 1.73 µM) | 0.30 (≈ 0.963 µM) | 1.2 (≈ 3.85 µM) | 0.63 (≈ 2.02 µM) | 0.52 (≈ 1.67 µM) | 0.28 (≈ 0.899 µM) | 0.26 (≈ 0.835 µM) | 7.1 | >10 | >10 |
| CCn1c(-c2ccc(OC)c(C)c2)cc(=O)c2cc(C(C)C)ccc21 [Compound A98] | 0.66 (≈ 1.97 µM) | 0.26 (≈ 0.775 µM) | 2.9 (≈ 8.65 µM) | 1.2 (≈ 3.58 µM) | 0.78 (≈ 2.33 µM) | 0.42 (≈ 1.25 µM) | 0.36 (≈ 1.07 µM) | >4 | >4 | >4 |
| CCCOc1ccc2c(c1)c(=O)c(C)c(-c1ccccc1)n2CC [Compound A32] | 0.93 (≈ 2.89 µM) | 0.40 (≈ 1.24 µM) | 1.9 (≈ 5.91 µM) | >3.3 | 1.0 (≈ 3.11 µM) | 0.55 (≈ 1.71 µM) | 0.77 (≈ 2.4 µM) | 9.7 | >10 | >10 |
| CCn1c(-c2cccc(C)c2)c(C)c(=O)c2c(Cl)c(OCC(C)C)ccc21 [Compound A181] | 0.39 (≈ 1.02 µM) | 0.24 (≈ 0.625 µM) | 2.4 (≈ 6.25 µM) | 1.8 (≈ 4.69 µM) | 1.6 (≈ 4.17 µM) | 0.94 (≈ 2.45 µM) | 0.46 (≈ 1.2 µM) | >2.5 | >2.5 | >2.5 |
| CCn1c(-c2ccccn2)cc(=O)c2cc(C(C)C)ccc21 [Compound A296] | 5.1 (≈ 17.4 µM) | 1.7 (≈ 5.81 µM) | 20 (≈ 68.4 µM) | 17 (≈ 58.1 µM) | 4.5 (≈ 15.4 µM) | 2.0 (≈ 6.84 µM) | 4.8 (≈ 16.4 µM) | 75 | >100 | 68 |
| CC(C)c1ccc2c(c1)c(=O)cc(-c1cccs1)n2C [Compound A308] | 0.87 (≈ 3.07 µM) | 0.31 (≈ 1.09 µM) | 3.9 (≈ 13.8 µM) | 1.6 (≈ 5.65 µM) | 0.81 (≈ 2.86 µM) | 0.36 (≈ 1.27 µM) | 0.94 (≈ 3.32 µM) | 11 | 16 | 11 |
| CCn1c(-c2ccccc2)c(C)c(=O)c2cc(OCC(C)C)c(C)cc21 [Compound A235] | 0.72 (≈ 2.06 µM) | 0.27 (≈ 0.773 µM) | 2.8 (≈ 8.01 µM) | 2.9 (≈ 8.3 µM) | 0.75 (≈ 2.15 µM) | 0.24 (≈ 0.687 µM) | 0.35 (≈ 1 µM) | >4 | >4 | >4 |
| Cc1c(OCC(C)C)ccc2c1c(=O)cc(-c1ccccc1)n2C [Compound A186] | 0.67 (≈ 2.08 µM) | 0.27 (≈ 0.84 µM) | 3.0 (≈ 9.33 µM) | 1.2 (≈ 3.73 µM) | 1.1 (≈ 3.42 µM) | >1.7 | 0.26 (≈ 0.809 µM) | >5 | >5 | 5.0 |
| CC(C)c1ccc2c(c1)c(=O)cc(-c1ccc(Br)s1)n2C [Compound A316] | 0.78 (≈ 2.15 µM) | 0.39 (≈ 1.08 µM) | 1.2 (≈ 3.31 µM) | 1.1 (≈ 3.04 µM) | 0.56 (≈ 1.55 µM) | 0.29 (≈ 0.8 µM) | 0.27 (≈ 0.745 µM) | >5 | >5 | >5 |
| CCn1c(-c2cccc(OC)c2)c(C)c(=O)c2cc(C(C)C)ccc21 [Compound A78] | 1.3 (≈ 3.88 µM) | 1.2 (≈ 3.58 µM) | 7.1 (≈ 21.2 µM) | 2.6 (≈ 7.75 µM) | 5.6 (≈ 16.7 µM) | 1.7 (≈ 5.07 µM) | 2.9 (≈ 8.65 µM) | >8 | >8 | >8 |
| CC(C)c1ccc2c(c1)c(=O)cc(-c1ccn(C)c1)n2C [Compound A306] | 0.83 (≈ 2.96 µM) | 0.49 (≈ 1.75 µM) | 2.9 (≈ 10.3 µM) | 2.1 (≈ 7.49 µM) | 0.89 (≈ 3.17 µM) | 0.73 (≈ 2.6 µM) | 0.88 (≈ 3.14 µM) | 14 | 26 | 25 |
| Cc1c(-c2ccccc2)n(C)c2ccc(NCC(C)C)cc2c1=O [Compound A157] | 0.59 (≈ 1.84 µM) | 0.27 (≈ 0.843 µM) | 3.8 (≈ 11.9 µM) | 4.9 (≈ 15.3 µM) | 1.0 (≈ 3.12 µM) | 0.56 (≈ 1.75 µM) | 1.3 (≈ 4.06 µM) | >5 | >5 | >5 |
